This is an account of results in US4871727A, “Anti-inflammatory and antidegenerative compounds isolated from L-681,512” (Merck & Co, Inc., priority 1987, dated 1989).

Molecules are shown by their SMILES.

The target of the experiment is T1, Human Polymorphonuclear Leukocyte Elastase (Homo sapiens, UniProt P08246).
T1 construct: Crude extract of human polymorphonuclear leukocytes (PMN) containing elastase activity; endogenous in cells; host or cells: human polymorphonuclear leukocytes (crude extract)
T1 sequence (P08246 30-247 limits assumed): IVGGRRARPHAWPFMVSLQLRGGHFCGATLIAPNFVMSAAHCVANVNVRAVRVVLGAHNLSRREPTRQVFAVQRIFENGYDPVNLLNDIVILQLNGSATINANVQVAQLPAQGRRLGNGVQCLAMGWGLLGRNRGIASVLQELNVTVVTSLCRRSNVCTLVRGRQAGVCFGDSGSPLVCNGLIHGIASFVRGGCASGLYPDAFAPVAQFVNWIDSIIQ
As to the kind of experiment: Inhibition of human polymorphonuclear leukocyte (PMN) elastase via hydrolysis of N-t-Boc-alanyl-alanyl-prolyl-alanine-p-nitroanilide (two point or "zero time" assay). The format is biochemical. Conditions: 50% inhibition of the enzyme activity 2 minutes after zero time; crude human PMN extract; 0.2 mM Boc-AAPAN, pH 7.5, 410 nm; read-out: ED50 (the source's name) (converted). The text has this:
It is generally understood that the enzyme of interest is that enzyme against which the inhibitory activity of the fermentation broth samples are being determined and quantified (e.g., PMN elastase). Consequently, all of the remaining wells are charged with the same enzyme of interest. However, several enzymes of interest can be charged to a plurality of wells, and the wells grouped together to facilitate separate identification and assay. When this is done, separate control wells must then also be prepared to correspond to the different enzymes of interest.
The chromogenic medium is charged to all the wells at substantially the same time and the time of this addition is noted. This is the "zero time" mentioned earlier as it is from that moment that a predetermined time lapse is measured during which sufficient reaction between the fermentation broth samples and the enzyme of interest occurs to enable not only accurate screening of enzyme inhibitory activity, but also the degree of that activity. Naturally, the predetermined time lapse will differ with different enzymes and can be from about 1 minute to about 20 minutes, typically from about 2 minutes to about 10 minutes.
The chromogenic media typically used are aromatic nitro- containing compounds. Illustrative of such compounds are Boc-ala-ala-pro-ala-p-nitroanilide, -α-benzoyl-DL-arginine-p-nitroanilide, N-α-benzoyl-L-tyrosine-p-nitroanilide, and the like.
Using the two point or "zero time" assay method described above, the following protocol was employed:
Enzyme Assays for the Inhibition of Human Polymorphonuclear Leukocyte Elastase Via Hydrolysis of N-t-Boc-alanyl-alanyl-prolylalanine-p-nitroanilide
0.05M TES (N-tris[hydroxymethyl]methyl-2-amino-ethanesulfonic acid) Buffer, pH 7.5.
0.2 mM N-t-Boc-alanyl-alanyl-prolyl-alanine-p-nitroanilide (Boc-AAPAN).
To prepare substrate, the solid (m.w. 550) was first dissolved in 10.1 ml DMSO. Buffer at pH 7.5 was then added to a final volume of 100 ml.
Crude extract of human polymorphonuclear leukocytes (PMN) containing elastase activity.
Inhibitors (cephalosporin sulfone esters) to be tested dissolved in DMSO just before use.
To 1.0 ml of 0.2 mM Boc-AAPAN in a cuvette, 0.01-0.1 ml of DMSO with or without inhibitor was added. After mixing, a measurement was taken at 410 nm to detect any spontaneous hydrolysis due to presence of test compound. 0.05 Milliliters of PMN extract was then added and the ΔOD/min at 410 nm was measured and recorded. A Beckman model 35 spectrophotometer was used.
Results were reported as ED50, i.e., effective dosage in micrograms per milliliter (μg/ml) for 50% inhibition of the enzyme activity 2 minutes after zero time.
The elastase activity in the crude PMN extract may vary from one preparation to another. A control of each new batch is run, and the volume added in the assay procedure is adjusted according to activity.
As to `C=C(CCC(C)[C@H]1CC=C2C3=C([C@@H](O)[C@H](OC(C)=O)C21C)C1(C)C[C@@H](O)[C@H](OS(=O)(=O)O)C(C)(C)[C@@H]1CC3)C(C)C` (some centres unmarked) [Compound 1], the IC50 was 2.35 µM.
The result for `C=C(CCC(C)[C@H]1CCC2C3=C([C@@H](O)[C@H](OC(C)=O)C21C)C1(C)C[C@@H](O)[C@H](OS(=O)(=O)O)C(C)(C)[C@@H]1CC3)C(C)C` (some centres unmarked) [Compound 2] reads 2.51 µM; that for `C=C(CCC(C)[C@H]1CC=C2C3=C([C@@H](O)[C@H](OC(C)=O)C21C)C1(C)C[C@@H](O)[C@H](O)C(C)(C)[C@@H]1CC3)C(C)C` (some centres unmarked) [Compound 5], 1.75 µM; that for `C=C(CCC(C)[C@H]1CC=C2C3=C([C@@H](OC(C)=O)[C@H](OC(C)=O)C21C)C1(C)C[C@@H](OC(C)=O)[C@H](OS(=O)(=O)O)C(C)(C)[C@@H]1CC3)C(C)C` (some centres unmarked) [Compound 10], 262 µM.
The result for `C=C(CCC(C)[C@H]1CC=C2C3=C([C@@H](O)[C@H](O)C21C)C1(C)C[C@@H](O)[C@H](OS(=O)(=O)O)C(C)(C)[C@@H]1CC3)C(C)C` (some centres unmarked) [Compound 11] reads 3.44 µM.
